Test results taken from article PMC8752738, “A propolis-derived small molecule ameliorates metabolic syndrome in obese mice by targeting the CREB/CRTC2 transcriptional complex” (Nature Communications, 2022).
Several values for one entry are separate records, joined by “and”; a condition that tells them apart may be missing. Equal entries are not always repeated.

How the values were obtained:
[1] = target: T1, CREB / HA-CRTC2 interaction (Mus musculus, UniProt Q01147); assay: Co-immunoprecipitation of HA-CRTC2 with endogenous CREB, primary hepatocytes; type: cell-based; settings: for HA/CREB in CREB-COIP fraction: Fig 2b replicates, AD-HA-CRTC2 +
T1 construct: expressed in transfected cells; host or cells: mouse primary hepatocytes infected with Ad-HA-Crtc2; CREB is endogenous
T1 sequence (Q01147 whole entry): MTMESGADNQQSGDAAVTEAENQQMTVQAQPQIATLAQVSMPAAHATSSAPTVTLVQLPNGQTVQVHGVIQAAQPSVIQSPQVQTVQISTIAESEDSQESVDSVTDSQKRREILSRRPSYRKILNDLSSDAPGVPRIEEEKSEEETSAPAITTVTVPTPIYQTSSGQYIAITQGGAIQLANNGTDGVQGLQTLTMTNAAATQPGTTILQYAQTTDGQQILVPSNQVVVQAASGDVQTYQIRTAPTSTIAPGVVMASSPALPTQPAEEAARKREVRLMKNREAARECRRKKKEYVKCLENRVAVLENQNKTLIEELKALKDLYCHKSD
Method: Fig. 2 APC blocks interaction between CREB and CRTC2. a Analysis of GST-CREB immunoprecipitated with overexpressed FLAG-CRTC2 from the lysates of HEK293T cells. APC (10 μM) was added to the culture media for 1 h and the following IP mixture. The relative gray density of FLAG in GST-pull-down fraction is shown as a bar graph (bottom). One of three independent experiments is presented (top, n = 3). Data are represented as mean ± SEM); P values were determined by one-way ANOVA followed Dunnett’s multiple comparisons test. b Analysis of HA-CRTC2 immunoprecipitated with endogenous CREB from primary hepatocyte lysates. APC (10 μM) was added to the culture media for 1-h before 30-min of stimulation with glucagon (Gluc, 100 nM) and the following IP mixture as indicated. Top panel presents one of three independent experiments, and the relative gray density of HA in CREB-IP-faction is shown as a bar graph (bottom, n = 3). Data are represented as mean ± SEM; P values were determined by one-way ANOVA followed Dunnett’s multiple comparisons test. c Immunoblotting analysis of endogenous CREB, CRTC2, and CBP interaction by an anti-CRTC2 antibody from the lysate of primary hepatocytes. APC (10 μM) was added to the culture media for 1-h before 30-min stimulation with glucagon. Related CREB and CBP normalized by CRTC2, respectively, in CRTC2-IP fractions. The top panel presents one of three independent experiments, and the relative gray density of CREB and CBP normalized to CRTC2 in the CRTC2-IP-faction is shown as a bar graph (bottom, n = 3). Data are represented as mean ± SEM; P values were determined by two-way ANOVA followed Bonferroni’s multiple comparisons test. d Immunoblotting analysis of protein GST-CREB recovered HIS-CRTC2-S171A proteins purified from E. coli. The addition of APC (5, 10, or 50 μM) in pull-down mixtures is indicated. The top part presents one of three independent experiments, and the relative gray density of HIS normalized to GST in GST-pull-down faction is shown as a bar graph (bottom, n = 3). Data are represented as mean ± SEM; P values were determined by one-way ANOVA followed Dunnett’s multiple comparisons test (compared with APC = 0).
Immunoblotting and immunoprecipitation assays were performed as previously described, with antibodies recognizing CREB, Ser133-P-CREB, AMPK, P-AMPK, AKT, P-AKT (Cell Signaling), PGC-1α (Merck), CRTC2 (Calbiochem), PCK1 (Santa Cruz), SREBP1 (Santa Cruz), SREBP2 (BD), HA (Convance), LXRα (Santa Cruz), FLAG (Sigma), GST (Covance), HIS (Abmart), GAPDH (AOGMA), α-TUBULIN (Abmart), β-ACTIN (Abmart), and other antibodies (Supplementary Table 3). For immunostaining assays, primary cultured hepatocytes seeded on coverslips were fixed with 4% paraformaldehyde for 20 min, permeabilized with 0.3% Triton X-100 in PBS, and then blocked by 5% normal goat serum and 0.3% Triton X-100 in PBS, followed by incubation with anti-CREB (1:1000), anti-P-CREB (1:1000), or anti-HA (1:3000) antibodies for 1 h at 4 °C. Slides were then washed, and after washing, slides were incubated with fluorochrome-conjugated secondary antibodies (Invitrogen). Slides were then washed and mounted with Vectashield mounting media containing 4, 6-diamidino-2-phenylindole (DAPI).

[2] = Body weight and body composition (living NMR) of mice; type: in vivo, mouse; set-up: AUC of body weight curve, group mean / fat mass of DIO, group mean / Total Area (AUC of body weight curve): unit not given here; settings: for Total Area (AUC of body weight curve) / Body weight, column mean (main column effect) / AUC of body weight curve, group mean / Body weight (BW) / Fat/lean ratio / fat mass of DIO / Fat/lean ratio, group mean / fat mass of DIO, group mean: DIO mice; for Body weight, column mean (main column effect): mean over 5 weeks, N=45; for AUC of body weight curve, group mean: n=9; for Fat/lean ratio, group mean / fat mass of DIO, group mean: n=8; for body weight of db/db ip APC, group mean: N 6; for Body weight, group mean: N=7; for Body weight: individual mice
Method: All animal experiments were performed according to procedures approved by the Shanghai Institutes for Biological Sciences (SIBS) Animal Care and Use Committee. The db/db mice (stock NO. 000642 C57BL/6J, JACKSON) were purchased from the Jackson laboratory. The 8–10-week-old wild-type C57BL/6 and ICR/JCL mice were purchased from the Shanghai Laboratory Animal Center. Mice were housed in the animal facility at SIBS, in which mice were maintained on a 12-h light/12-h dark cycle for at least 2 weeks before the study and had free access to water and a regular diet (12% fat). For high-fat-induced obesity mice (DIO), high-fat diet (60% fat, Research Diets) was fed to wild-type mice for at least 13–15 weeks and glucose-tolerance tests were performed to confirm the development of diabetes in these mice. After being euthanized, samples were collected. Unless specified, male mice were used for these experiments.
Under the condition of non-anesthesia and non-invasion, the composition of fat and lean in live mice was analyzed by nuclear magnetic resonance (NMR, The Minispec, Bruker) according to the operational manual.

[3] = DIO and db/db mice, i.p. 10 or 20 mg/kg
[4] = APC 10 mg/kg, individual animals
[5] = APC 20 mg/kg, individual animals
[6] = db/db mice, mean, sample size 7

## CC(C)=CCc1cc(C=CC(=O)O)cc(CC=C(C)C)c1O [APC, 3,5-diprenyl-4-hydroxycinnamic acid]
[1]; APC +, Gluc +, APC in IP system +
  HA/CREB in CREB-COIP fraction: 93.4971 and 123.554 and 124.784
[1]; APC +, Gluc +, APC in IP system -
  HA/CREB in CREB-COIP fraction: 234.39 and 222.083 and 222.525
[1]; APC +, Gluc -, APC in IP system +
  HA/CREB in CREB-COIP fraction: 106.115 and 87.7697 and 106.142
[1]; APC +, Gluc -, APC in IP system -
  HA/CREB in CREB-COIP fraction: 166.202 and 169.06 and 171.069
[1]; APC -, Gluc +, APC in IP system +
  HA/CREB in CREB-COIP fraction: 192.388 and 190.79 and 193.652
[1]; APC -, Gluc -, APC in IP system +
  HA/CREB in CREB-COIP fraction: 107.959 and 107.638 and 128.065
[1]; primary hepatocytes, with or without glucagon, APC 10 μM
  HA-tagged CRTC2 immunoprecipitated by anti-CREB antibody: greatly decreased
[2]; [3]
  body weights: reduced
  fat mass and fat to lean ratio: significant decrease
[2]; APC 10 mg/kg ip, individual animals
  Total Area (AUC of body weight curve): 120.1 and 149.9 and 145.1 and 147.4 and 144.1 and 156.2 and 141.9 and 151.1 and 155.2
[2]; APC 10 mg/kg ip, in g (unit assumed)
  Body weight, column mean (main column effect): 37.24
[2]; APC 10 mg/kg ip
  AUC of body weight curve, group mean: 145.7
[2]; APC 10 mg/kg ip, week 0, individual animals
  Body weight (BW): 35.8 g and 42.4 g and 44.2 g and 42.6 g and 43.4 g and 41.4 g and 42 g and 41.7 g and 47 g
[2]; APC 10 mg/kg ip, week 1, individual animals
  Body weight (BW): 29.5 g and 36.7 g (2×) and 37.7 g and 36.4 g and 42.9 g and 35.2 g and 34.9 g and 39.6 g
[2]; APC 10 mg/kg ip, week 2, individual animals
  Body weight (BW): 29.3 g and 36.8 g and 38.4 g and 36 g (2×) and 36.6 g and 42.8 g and 35.7 g and 39.9 g
[2]; APC 10 mg/kg ip, week 3, individual animals
  Body weight (BW): 29.3 g and 37.3 g and 38.5 g and 36.1 g and 35 g and 42.4 g and 35.3 g and 35.8 g and 39.5 g
[2]; APC 10 mg/kg ip, week 4, individual animals
  Body weight (BW): 29.7 g and 37.3 g and 38.4 g and 36.7 g and 33.7 g and 40.9 g and 33.3 g and 42 g and 37.2 g
[2]; APC 10 mg/kg ip, week 5, individual animals
  Body weight (BW): 34.01 g and 40.28 g and 41.99 g and 40.47 g and 41.23 g and 39.33 g and 39.9 g and 39.615 g and 44.65 g
[2]; [4]
  Fat/lean ratio: 0.4757 and 0.5256 and 0.2029 and 0.4176 and 0.1933 and 0.2387 and 0.2853 and 0.2798
  fat mass of DIO: 10.86 g and 11.25 g and 7.23 g and 10.98 g and 11.28 g and 7.03 g and 6.72 g and 7.86 g
[2]; APC 10 mg/kg
  Fat/lean ratio, group mean: 0.3274
  fat mass of DIO, group mean: 9.151
[2]; APC 20 mg/kg ip, individual animals
  Total Area (AUC of body weight curve): 123.1 and 131.4 and 141.8 and 135.4 and 152.5 and 146.9 and 147.6 and 154 and 138.7
[2]; APC 20 mg/kg ip, in g (unit assumed)
  Body weight, column mean (main column effect): 35.74
[2]; APC 20 mg/kg ip
  AUC of body weight curve, group mean: 141.3
[2]; APC 20 mg/kg ip, week 0, individual animals
  Body weight (BW): 36.3 g and 41.5 g and 43.7 g and 41.3 g (2×) and 48.2 g and 44.7 g and 46.6 g and 47.1 g
[2]; APC 20 mg/kg ip, week 1, individual animals
  Body weight (BW): 29.9 g and 34.9 g and 36.7 g and 33 g and 40.6 g and 37.6 g and 35.9 g and 38.6 g and 35.1 g
[2]; APC 20 mg/kg ip, week 2, individual animals
  Body weight (BW): 30.2 g and 33.7 g (2×) and 35.8 g and 41.6 g and 38.4 g and 36.8 g and 39.6 g and 34.9 g
[2]; APC 20 mg/kg ip, week 3, individual animals
  Body weight (BW): 30 g and 31.4 g and 35.1 g and 33.7 g and 41.2 g and 35.4 g and 36.3 g and 37.9 g and 34.4 g
[2]; APC 20 mg/kg ip, week 4, individual animals
  Body weight (BW): 30.5 g and 31.2 g and 34 g (2×) and 38.9 g and 31.3 g and 36.7 g and 37.2 g and 34.3 g
[2]; APC 20 mg/kg ip, week 5, individual animals
  Body weight (BW): 30.855 g and 35.275 g and 37.145 g and 35.105 g (2×) and 40.97 g and 37.995 g and 39.61 g and 40.035 g
[2]; [5]
  Fat/lean ratio: 0.1945 and 0.1916 and 0.1806 and 0.5498 and 0.1998 and 0.4126 and 0.3005 and 0.2177
  fat mass of DIO: 8.13 g and 8.08 g and 9.26 g and 10.23 g and 9.91 g and 8.44 g and 10.75 g and 9.93 g
[2]; APC 20 mg/kg
  Fat/lean ratio, group mean: 0.2809
  fat mass of DIO, group mean: 9.341
[2]; db/db mice, individual animals
  fat of db/db mice: 13.23 g and 18.64 g and 16.51 g and 20.35 g and 17.58 g and 17.71 g and 15.53 g
  fat/lean ratio of db/db mice: 1.371 and 1.124 (2×) and 1.477 and 1.196 and 1.113 and 1.231
[2]; db/db mice, 0W, individual animals
  body weight of db/db ip APC: 45.4 g and 45.3 g and 44.6 g and 40 g and 47.8 g and 44 g
[2]; db/db mice, 1W, individual animals
  body weight of db/db ip APC: 48.6 g and 47.9 g and 47.4 g and 42.5 g and 49.5 g and 45.9 g
[2]; db/db mice, 1W, mean
  body weight of db/db ip APC, group mean: 46.97 g
[2]; db/db mice, 2W, individual animals
  body weight of db/db ip APC: 48.4 g and 47.9 g and 47.3 g and 41.7 g and 48.9 g and 45.9 g
[2]; db/db mice, 4W, individual animals
  body weight of db/db ip APC: 47.9 g and 46.5 g and 48.1 g and 42.5 g and 45.8 g and 47.8 g
[2]; db/db mice, 4W, mean
  body weight of db/db ip APC, group mean: 46.43 g
[2]; db/db mice, 5W, individual animals
  body weight of db/db ip APC: 47.9 g and 45.3 g and 47.8 g and 44.9 g and 46.8 g and 48.5 g
[2]; db/db mice, 5W, mean
  body weight of db/db ip APC, group mean: 46.87 g
[2]; [6]
  fat of db/db mice, group mean: 17.08 g
  fat/lean ratio of db/db mice, group mean: 1.234
[2]; lean WT mice ip APC, 8w, in g (unit assumed)
  Body weight, group mean: 20.96
[2]; lean WT mice ip APC, 8w
  Body weight: 21.4 g and 21.2 g and 20.1 g and 20.5 g and 21.7 g and 20.9 g (2×) and 21.6 g
[2]; lean WT mice ip APC, 8w-15w, in g (unit assumed)
  Body weight, column mean over all weeks: 22.98
[2]; lean WT mice ip APC, 10w, in g (unit assumed)
  Body weight, group mean: 22.01
[2]; lean WT mice ip APC, 10w
  Body weight: 23.62 g and 20.96 g and 22.95 g and 20.89 g and 22.05 g and 22.38 g and 21.2 g and 21.22 g
[2]; lean WT mice ip APC, 12w, in g (unit assumed)
  Body weight, group mean: 23.14
[2]; lean WT mice ip APC, 12w
  Body weight: 25.7 g and 21.4 g and 23.7 g and 23 g and 24.2 g and 22.5 g and 23.3 g and 21.5 g
[2]; lean WT mice ip APC, 13w, in g (unit assumed)
  Body weight, group mean: 24.08
[2]; lean WT mice ip APC, 13w
  Body weight: 25.85 g and 22.7 g and 24.7 g and 23.6 g and 24.5 g and 24.21 g and 23.8 g and 23 g
[2]; lean WT mice ip APC, 15w, in g (unit assumed)
  Body weight, group mean: 24.72
[2]; lean WT mice ip APC, 15w
  Body weight: 27.03 g and 22.8 g and 25.2 g and 23.7 g and 26 g and 24.5 g and 23.5 g and 23.8 g
[2]; lean wild C57 mice, i.p. 20 mg/kg, 3 weeks
  RER, body weight and plasma NEFA levels of lean mice: little effect
